The text below walks through data of publication PMC10609273, “Radiosynthesis and Early Evaluation of a Positron Emission Tomography Imaging Probe [^18F]AGAL Targeting Alpha-Galactosidase A Enzyme for Fabry Disease” (Molecules, 2023).

Holding throughout (assay type): in vitro ADME
A short description of data set [1]: In vitro liver microsomal metabolism study, human. As to conditions: human liver microsomes. On the procedure:
Metabolic stability was assessed by incubating compounds in the presence of human, rat, and mouse liver microsomal fractions (Xenotech, Kansas City, KS, USA). All chemicals and reagents, including control compounds, were purchased from commercial sources such as Sigma-Aldrich (St. Louis, MO, USA) or Toronto Research Chemicals (North York, ON, Canada). Liver microsomal incubations were conducted with 100 mM phosphate buffer, 0.5 mg/mL of liver microsomal protein, 2 mM NADPH, 2.5 mM UDPGA, 3 mM MgCl2, alamethicin, and 1 μM test article for a total incubation volume of 80 µL. All reagents except the liver microsomes were mixed together and aliquoted (60 μL) into 96-well plates. The reaction was initiated by adding the microsomes (20 μL). At 0, 3, 7, 12, 20, and 30 min time points, the reactions were terminated with the addition of acetonitrile-containing carbutamide (as an internal standard). The terminated samples were then centrifuged at 2 °C to pellet the protein and the supernatant was injected onto an LC–MS. The test article was monitored for loss over time and the t1/2 was determined. The calculated t1/2 was then used as described below to determine the Eh (hepatic extraction ratio) for both human and rat.
The intrinsic clearance (CLint), hepatic clearance (CLh), and hepatic extraction ratio (Eh) were calculated using the equations below. CLint = (0.693/t1/2 in vitro) × (mL incubation volume/mg microsomal protein) × (X mg of microsomal protein/gram of liver) × (Y g of liver/kg of body weight)(1) CLh = Q × CLint/Q + CLint(2) Eh = CLh/Q(3) where: • CLint = intrinsic clearance (calculated from microsomal incubations) • X = 40 for human, 41.5 for rat and 45 for mouse • Y = 21.4 for human, 40 for rat and 50 for mouse • t1/2 = half-life • CLh = hepatic clearance • Q = liver blood flow rate = 1.24 L/h/kg for human, 4.8 L/h/kg for rat, and 5.4 L/h/kg for mouse • Eh = hepatic extraction ratio • CLh = hepatic clearance

The nature of data set [2]: Plasma stability study, mouse. On the procedure: Briefly, plasma stability was assessed by incubating compounds in the presence of human (pooled) and mouse (pooled) plasma (Bioreclamation, Westbury, NY, USA). All chemicals and reagents including control compounds were purchased from commercial sources such as Sigma-Aldrich or Toronto Research Chemicals. Plasma incubations were conducted by placing plasma (95 μL) in a 96-well microtiter plate and warming to 37 °C for 5 min. The reaction was initiated with the addition of the test article (5 μL of 20 μM), totaling 100 μL in incubation volume. At 0, 15, 30, 60, and 120 min time points, the reactions were terminated with the addition of acetonitrile-containing carbutamide (as an internal standard). The terminated samples were then centrifuged at 2 °C to pellet the protein, and the supernatant was injected onto an LC–MS. The test article was monitored for loss over time and the t1/2 was determined.

A further data set deals with Caco-2 cells. Kind of data set: Bidirectional permeability in Caco-2 cells. On the procedure:
The Caco-2 cell culture and bidirectional permeability assays used in the study were adapted from previous studies at Takeda. Briefly, Caco-2 cells were obtained from American Type Culture Collection (ATCC) (Manassas, VA, USA) and were cultured in 175 cm^2 tissue culture T-flasks (Corning Life Sciences, Corning, NY, USA). For bidirectional permeability assays, cells were plated onto Costar 24-well culture plates (0.33 cm^2/well, […] (Corning Life Sciences, Corning, NY, USA) by adding 1 × 10^5 cells suspended in 0.2 mL of culture medium (Dulbecco’s modified Eagle’s medium [DMEM] with 0.1 mM non-essential amino acids, 2 mM L-glutamine, 4.5 g/L glucose, and 10% fetal bovine serum [FBS]) to the upper chamber of each well of the 24-well transwell plate. Cell-free culture medium (40 mL) was added to the lower chamber reservoir (Corning Life Sciences, Corning, NY, USA). The transwell plates were then incubated at 37 °C in an atmosphere of 5% CO2 for 25 days to ensure complete enterocyte-like differentiation of the cells, and the culture medium was changed every three to four days during the incubation period. Cell monolayers with transepithelial electrical resistance (TEER) values > 250 ohms × cm^2 were used for the bidirectional permeability assays.
All chemicals and reagents including control compounds were purchased from commercial sources such as Sigma-Aldrich or synthesized in house (pevonedistat and LY335979). Bidirectional transport studies were performed at 37 °C. Before each experiment, the confluent cell monolayers on transwell inserts were washed and equilibrated for 30 min with transport media (Hank’s Balanced Salt Solution [HBSS] containing 25 mM 4-(2-hydroxyethyl)-1-piperazineethanesulfonic acid [HEPES] and 10 mM glucose, pH 7.4 or 6.5). The bidirectional permeability of 5 µM of the cyclohexane derivative was assessed alone or in the presence of 5 µM LY335979, 5 µM K0143, or 10 µM Elacridar to inhibit P-gp, BCRP, and both efflux transporters, respectively. Additionally, the bi-directional permeability of 5 µM solutions of nadolol (low permeable control marker), minoxidil (high permeable marker), propranolol (high permeable marker), and pevonedistat (efflux transporter control) was also assessed. The experiment was initiated by adding a solution containing the test compounds and LY335979 to either the apical (for apical-to-basolateral [A-to-B] transport) or basolateral (for basolateral-to-apical [B-to-A] transport) compartment. Lucifer yellow (50 µM) was added to each donor chamber in the experiment to serve as a paracellular transport control and to monitor cell monolayer integrity. The apical volume was 0.2 mL and the basolateral volume was 1.0 mL. Bovine serum albumin (BSA, Sigma Aldrich) (5%) was added to the transport media on the receiver side to prevent non-specific binding of the test compound to the polystyrene well. After the addition of test compound into the donor side, […] of the receiving solution were withdrawn from the receiver side at 30 and 60 min. A […] of fresh transport media was immediately added to the receiver side at 30 and 60 min. The samples were placed into 96-well black plates (PerkinElmer Life Sciences, Boston, MA, USA) for fluorescence measurement (excitation at 450 nm and emission at 535 nm). After this measurement, the amounts of cyclohexane derivative and control compounds in each sample were quantified with liquid chromatography–mass spectrometry (LC–MS). The time course of drug transported across cell monolayers was analyzed to determine the time and rate of steady-state flux. The transport rate (total amount of drug present in the receiver chamber per unit time), Papp, and efflux ratio were calculated as described in Equations (4) and (5). […]

As to `O=C(CCCCCCCn1cc(CCCF)nn1)N1[C@@H]2[C@H](O)[C@@H](O)[C@@H](O)[C@@H](CO)[C@@H]21` [AGAL], in data set [1], the CLh is less than 4.68 mL/min/kg; the “Eh (hepatic extraction ratio)” value was less than 0.226; the “microsomal stability, clearance in words” value is given as “minimally cleared”. Further, the CLint scaled at 1 µM in data set [1] (1 μM, NADPH + UDPGA) is less than 6.05 mL/min/kg. In addition, in data set [2] (37 °C), the “Plasma Half-Life, t1/2” value worked out at 9.83 min. Further, the parent remaining in data set [2] (30 min post-incubation) came to 18%. Also, the half-life at 1 µM in data set [2] (mouse, pooled plasma, 37 °C, read-out: Plasma Half-Life, t1/2) was less than 10 min. For the same compound, the “reduction of the efflux ratio” value with Caco-2 cells (by LY335979) was found to be 67%. Besides, the “reduction of the efflux ratio” value with Caco-2 cells (by elacridar) stood at 76%.
